# From ChEMBL document CHEMBL1629484, “1,2-diamino-ethane-substituted-6,7,8,9-tetrahydro-5H-pyrimido[4,5-d]azepines as TRPV1 antagonists with improved properties” (Bioorg Med Chem Lett, 2010)
# Activity calls are given as the source filed them. The calls are words filed in the database; no cut-off is given here.
# Tests used:
# [1] = Aqueous equilibrium solubility of compound in simulated intestinal fluid at pH 6.8; format: physicochemical
# [2] = Aqueous equilibrium solubility of compound in phosphate buffer at pH 2; format: physicochemical
# [3] = target: T1, Transient receptor potential cation channel subfamily V member 1 (Rattus norvegicus, UniProt O35433); assay: Antagonist activity at rat TRPV1 expressed in HEK293 cells assessed as inhibition of capsaicin-induced intracellular Ca2+ level by FLIPR assay; format: functional, cell-based
# T1 sequence (O35433 whole entry): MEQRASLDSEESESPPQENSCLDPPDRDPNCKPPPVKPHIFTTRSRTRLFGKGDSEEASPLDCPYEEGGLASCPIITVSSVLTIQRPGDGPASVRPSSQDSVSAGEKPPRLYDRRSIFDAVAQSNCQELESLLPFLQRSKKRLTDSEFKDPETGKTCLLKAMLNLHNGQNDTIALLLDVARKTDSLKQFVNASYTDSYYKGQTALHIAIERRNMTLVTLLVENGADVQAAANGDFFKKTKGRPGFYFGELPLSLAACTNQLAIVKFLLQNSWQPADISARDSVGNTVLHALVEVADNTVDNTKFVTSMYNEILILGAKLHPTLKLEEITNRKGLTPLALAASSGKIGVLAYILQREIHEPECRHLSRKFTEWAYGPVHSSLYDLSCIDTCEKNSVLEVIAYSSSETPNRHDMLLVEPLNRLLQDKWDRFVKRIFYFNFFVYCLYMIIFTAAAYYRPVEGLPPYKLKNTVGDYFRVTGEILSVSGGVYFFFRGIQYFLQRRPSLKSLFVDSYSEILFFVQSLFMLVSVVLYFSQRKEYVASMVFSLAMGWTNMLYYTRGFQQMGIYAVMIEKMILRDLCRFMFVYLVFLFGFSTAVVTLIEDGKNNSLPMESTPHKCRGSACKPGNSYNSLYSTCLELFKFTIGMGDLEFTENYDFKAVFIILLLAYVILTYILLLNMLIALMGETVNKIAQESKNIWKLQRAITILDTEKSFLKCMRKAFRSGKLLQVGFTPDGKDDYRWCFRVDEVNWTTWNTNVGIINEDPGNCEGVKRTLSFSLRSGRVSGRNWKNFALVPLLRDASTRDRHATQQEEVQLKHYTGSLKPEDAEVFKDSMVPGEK
# [4] = target: T2, Transient receptor potential cation channel subfamily V member 1 (Homo sapiens, UniProt Q8NER1); assay: Antagonist activity at human TRPV1 expressed in HEK293 cells assessed as inhibition of capsaicin-induced intracellular Ca2+ level by FLIPR assay; format: functional, cell-based
# T2 sequence (Q8NER1 whole entry): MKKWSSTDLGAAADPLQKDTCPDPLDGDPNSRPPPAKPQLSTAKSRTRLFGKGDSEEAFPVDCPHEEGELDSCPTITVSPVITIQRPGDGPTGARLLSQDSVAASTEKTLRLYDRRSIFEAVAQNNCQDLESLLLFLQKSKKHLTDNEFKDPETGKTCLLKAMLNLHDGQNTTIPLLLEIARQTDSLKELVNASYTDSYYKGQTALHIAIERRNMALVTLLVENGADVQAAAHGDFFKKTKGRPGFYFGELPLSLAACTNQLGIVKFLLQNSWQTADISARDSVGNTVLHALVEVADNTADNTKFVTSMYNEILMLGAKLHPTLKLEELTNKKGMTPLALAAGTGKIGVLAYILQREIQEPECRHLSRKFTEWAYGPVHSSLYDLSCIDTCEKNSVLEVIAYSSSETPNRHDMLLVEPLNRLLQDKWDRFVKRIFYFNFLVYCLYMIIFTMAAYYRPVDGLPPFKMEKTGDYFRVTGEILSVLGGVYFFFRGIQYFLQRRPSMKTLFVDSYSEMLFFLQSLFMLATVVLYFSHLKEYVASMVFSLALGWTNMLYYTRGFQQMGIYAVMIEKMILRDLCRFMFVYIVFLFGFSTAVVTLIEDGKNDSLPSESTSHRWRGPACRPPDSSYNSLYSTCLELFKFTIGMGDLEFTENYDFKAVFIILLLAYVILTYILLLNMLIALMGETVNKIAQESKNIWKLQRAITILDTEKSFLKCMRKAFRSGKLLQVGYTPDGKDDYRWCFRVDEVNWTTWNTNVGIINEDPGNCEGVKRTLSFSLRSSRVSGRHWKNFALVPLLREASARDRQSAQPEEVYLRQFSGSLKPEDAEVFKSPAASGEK
# [5] = Half life in fasted Sprague-Dawley rat at 0.5 mg/kg, iv and 2 mg/kg, po; format: ADME, organism-based; details: in vivo
# [6] = Volume of distribution at steady state in fasted Sprague-Dawley rat at 0.5 mg/kg, iv and 2 mg/kg, po; format: ADME, organism-based; details: in vivo, read-out: Vdss
# [7] = Clearance in fasted Sprague-Dawley rat at 0.5 mg/kg, iv and 2 mg/kg, po; format: ADME, organism-based; details: in vivo
# Rattus norvegicus [8] = assay: Analgesic activity against carrageenan-induced thermal hyperalgesia in rat assessed as maximal possible effect at 30 mg/kg, po administered 3 hrs post-carrageenan challenge; format: functional
# Rattus norvegicus [9] = assay: Analgesic activity against carrageenan-induced thermal hyperalgesia in rat at 5 mg/kg, po administered 1 hr before carrageenan challenge; format: functional, organism-based; parameters: dose 5 mg/kg
# [10] = target: T1, Transient receptor potential cation channel subfamily V member 1; assay: Displacement of [3H]RTX from rat TRPV1 expressed in HEK cells; format: cell-based, HEK293
# [11] = target: T1, Transient receptor potential cation channel subfamily V member 1; assay: Inhibition of rat TRPV1 expressed in HEK cells; format: cell-based, HEK293
# [12] = target: T2, Transient receptor potential cation channel subfamily V member 1; assay: Inhibition of human TRPV1 expressed in HEK cells; format: cell-based, HEK293
# [13] = Oral bioavailability in fasted Sprague-Dawley rat at 2 mg/kg; format: ADME, organism-based; details: in vivo
# [14] = Tmax in fasted Sprague-Dawley rat at 2 mg/kg, po; format: ADME, organism-based; parameters: dose 2 mg/kg, route oral; details: in vivo
# [15] = AUC (infinity) in fasted Sprague-Dawley rat at 2 mg/kg, po; format: ADME, organism-based; parameters: time infinity, dose 2 mg/kg, route oral; details: plasma
# [16] = Cmax in fasted Sprague-Dawley rat at 2 mg/kg, po; format: ADME, organism-based; parameters: dose 2 mg/kg, route oral; details: in vivo
# [17] = Terminal plasma concentration in rat at 5 mg/kg, po administered 5 hrs post-carrageenan challenge; format: ADME, organism-based; parameters: dose 5 mg/kg, route oral; details: read-out: Cp(T)
# [18] = Terminal plasma concentration in rat at 30 mg/kg, po administered 5 hrs post-carrageenan challenge; format: ADME, organism-based; parameters: dose 30 mg/kg, route oral; details: read-out: Cp(T)
# [19] = Clearance in rat; format: ADME, organism-based; details: in vivo
SMILES,solubility thermodynamic [1],solubility thermodynamic [2],IC50 [3],IC50 [4],further results
FC(F)(F)c1ccc(Nc2nc(N3CCN(C4CCCC4)CC3)nc3c2CCN(c2ncccc2C(F)(F)F)CC3)cc1,11 µg/mL,221 µg/mL,123 nM,15 nM,–
OCCN1CCN(c2nc3c(c(Nc4ccc(C(F)(F)F)cc4)n2)CCN(c2ncccc2C(F)(F)F)CC3)CC1,4 µg/mL,> 233 µg/mL,1160 nM,498 nM,–
FC(F)(F)c1ccc(Nc2nc(N3CCN(C4CCC4)CC3)nc3c2CCN(c2ncccc2C(F)(F)F)CC3)cc1,2 µg/mL,> 237 µg/mL,161 nM,24 nM,–
FC(F)(F)c1ccc(Nc2nc(NCC3CCCCN3)nc3c2CCN(c2ncccc2C(F)(F)F)CC3)cc1 (stereo not drawn),237 µg/mL,> 272 µg/mL,> 5000 nM,100 nM,–
CN1CCN(c2nc3c(c(Nc4ccc(C(F)(F)F)cc4)n2)CCN(c2ncccc2C(F)(F)F)CC3)CC1,193 µg/mL,> 221 µg/mL,506 nM,–,–
CC(=O)NC1CCN(c2nc3c(c(Nc4ccc(C(F)(F)F)cc4)n2)CCN(c2ncccc2C(F)(F)F)CC3)C1 (stereo not drawn),19 µg/mL,202 µg/mL,410 nM,150 nM,–
CN(C)CCN(C)c1nc2c(c(Nc3ccc(C(F)(F)F)cc3)n1)CCN(c1ncccc1C(F)(F)F)CC2,210 µg/mL,> 221 µg/mL,4450 nM,2670 nM,–
CN(C)[C@H]1CCN(c2nc3c(c(Nc4ccc(C(F)(F)F)cc4)n2)CCN(c2ncccc2C(F)(F)F)CC3)C1,57 µg/mL,> 226 µg/mL,586 nM,185 nM,–
CC(C)CN1CCN(c2nc3c(c(Nc4ccc(C(F)(F)F)cc4)n2)CCN(c2ncccc2C(F)(F)F)CC3)CC1,11 µg/mL,> 237 µg/mL,89 nM,11 nM,Activity (Rattus norvegicus [8]): 100%; Activity (Rattus norvegicus [9]): Active; IC50 [10]: 330 nM; IC50 [11]: 63 nM; IC50 [12]: 67 nM; bioavailability [13]: 21%; Tmax [14]: 2.3 h; AUC(0-inf) [15]: 598 ng·h/mL; Cmax [16]: 300 nM; half-life [5]: 1.8 h; Vd [6]: 0.5 L/kg; clearance [7]: 11.7 mL/min/kg; concentration at 5 h [17]: 277 nM; concentration at 5 h [18]: 1050 nM
CC(C)(C)OC(=O)N1CCCCC1CNc1nc2c(c(Nc3ccc(C(F)(F)F)cc3)n1)CCN(c1ncccc1C(F)(F)F)CC2 (stereo not drawn),3 µg/mL,3 µg/mL,230 nM,250 nM,–
CN(c1nc2c(c(Nc3ccc(C(F)(F)F)cc3)n1)CCN(c1ncccc1C(F)(F)F)CC2)C1CCCN(C(=O)OC(C)(C)C)C1 (stereo not drawn),4 µg/mL,1 µg/mL,97 nM,53 nM,–
CC(C)(C)OC(=O)N1CCCC(Nc2nc3c(c(Nc4ccc(C(F)(F)F)cc4)n2)CCN(c2ncccc2C(F)(F)F)CC3)C1 (stereo not drawn),14 µg/mL,1 µg/mL,239 nM,140 nM,–
COCCN1CCN(c2nc3c(c(Nc4ccc(C(F)(F)F)cc4)n2)CCN(c2ncccc2C(F)(F)F)CC3)CC1,6 µg/mL,> 238 µg/mL,207 nM,65 nM,–
CN1CCCC(N(C)c2nc3c(c(Nc4ccc(C(F)(F)F)cc4)n2)CCN(c2ncccc2C(F)(F)F)CC3)C1 (stereo not drawn),> 232 µg/mL,> 232 µg/mL,> 5000 nM,> 5000 nM,–
FC(F)(F)c1ccc(Nc2nc(N3CCOCC3)nc3c2CCN(c2ncccc2C(F)(F)F)CC3)cc1,–,–,–,–,clearance [19]: 51.7 mL/min/kg
CCC(CC)N1CCN(c2nc3c(c(Nc4ccc(C(F)(F)F)cc4)n2)CCN(c2ncccc2C(F)(F)F)CC3)CC1,109 µg/mL,243 µg/mL,185 nM,41 nM,–
CC(=O)N(C)C1CCN(c2nc3c(c(Nc4ccc(C(F)(F)F)cc4)n2)CCN(c2ncccc2C(F)(F)F)CC3)C1 (stereo not drawn),2 µg/mL,21 µg/mL,460 nM,62 nM,–

# Now from value to molecule, other results behind:
solubility thermodynamic [1],solubility thermodynamic [2],IC50 [3],IC50 [4],SMILES,further results
> 243 µg/mL,> 243 µg/mL,2600 nM,2000 nM,CN(C)CCN1CCN(c2nc3c(c(Nc4ccc(C(F)(F)F)cc4)n2)CCN(c2ncccc2C(F)(F)F)CC3)CC1,–
> 283 µg/mL,> 283 µg/mL,> 5000 nM,3330 nM,CN(CC1CCCCN1C)c1nc2c(c(Nc3ccc(C(F)(F)F)cc3)n1)CCN(c1ncccc1C(F)(F)F)CC2 (stereo not drawn),–
226 µg/mL,204 µg/mL,> 5000 nM,3080 nM,CN1CCCC(Nc2nc3c(c(Nc4ccc(C(F)(F)F)cc4)n2)CCN(c2ncccc2C(F)(F)F)CC3)C1 (stereo not drawn),–
211 µg/mL,> 241 µg/mL,1540 nM,3600 nM,CN(c1nc2c(c(Nc3ccc(C(F)(F)F)cc3)n1)CCN(c1ncccc1C(F)(F)F)CC2)C1CCCNC1 (stereo not drawn),–
2 µg/mL,> 232 µg/mL,386 nM,–,CC(C)N1CCN(c2nc3c(c(Nc4ccc(C(F)(F)F)cc4)n2)CCN(c2ncccc2C(F)(F)F)CC3)CC1,half-life [5]: 1.5 h; Vd [6]: 5.1 L/kg; clearance [7]: 80 mL/min/kg
6 µg/mL,> 226 µg/mL,506 nM,132 nM,CCN1CCN(c2nc3c(c(Nc4ccc(C(F)(F)F)cc4)n2)CCN(c2ncccc2C(F)(F)F)CC3)CC1,–
57 µg/mL,> 226 µg/mL,1040 nM,243 nM,CN(C)[C@@H]1CCN(c2nc3c(c(Nc4ccc(C(F)(F)F)cc4)n2)CCN(c2ncccc2C(F)(F)F)CC3)C1,–
> 215 µg/mL,> 215 µg/mL,> 5000 nM,3700 nM,NC1CCN(c2nc3c(c(Nc4ccc(C(F)(F)F)cc4)n2)CCN(c2ncccc2C(F)(F)F)CC3)C1 (stereo not drawn),–
254 µg/mL,> 277 µg/mL,2280 nM,1760 nM,CN1CCCCC1CNc1nc2c(c(Nc3ccc(C(F)(F)F)cc3)n1)CCN(c1ncccc1C(F)(F)F)CC2 (stereo not drawn),–
203 µg/mL,> 235 µg/mL,> 5000 nM,> 5000 nM,FC(F)(F)c1ccc(Nc2nc(NC3CCCNC3)nc3c2CCN(c2ncccc2C(F)(F)F)CC3)cc1 (stereo not drawn),–
158 µg/mL,215 µg/mL,> 5000 nM,–,FC(F)(F)c1ccc(Nc2nc(N3CCNCC3)nc3c2CCN(c2ncccc2C(F)(F)F)CC3)cc1,–
1 µg/mL,224 µg/mL,1340 nM,476 nM,FC(F)(F)c1ccc(Nc2nc(NCc3ccccn3)nc3c2CCN(c2ncccc2C(F)(F)F)CC3)cc1,–
9 µg/mL,230 µg/mL,45 nM,11 nM,FC(F)(F)c1ccc(Nc2nc(N3CCN(C4CC4)CC3)nc3c2CCN(c2ncccc2C(F)(F)F)CC3)cc1,half-life [5]: 1.6 h; Vd [6]: 1 L/kg; clearance [7]: 21.7 mL/min/kg
233 µg/mL,> 220 µg/mL,> 5000 nM,2790 nM,CNC1CCN(c2nc3c(c(Nc4ccc(C(F)(F)F)cc4)n2)CCN(c2ncccc2C(F)(F)F)CC3)C1 (stereo not drawn),–
